Series [1] has as its target T1, GST (human placenta, hGSTP1-1) (Homo sapiens, UniProt P09211). In words: GST substrate assay. Format: biochemical. The following applies: for substrate for GST (GSH consumption as biomarker): GST 0.1 U/mL, GSH 500 µM, no tyrosinase, up to 60 min at 37 °C.
For series [2], the target named is T2, human placenta GST (hGSTP1-1) (Homo sapiens, UniProt P09211). Nature of the series: Inhibition of human placenta GST. Format: biochemical. Conditions: for GST inhibition in the absence and presence of tyrosinase: controls; for GST activity inhibition: quinone formed with tyrosinase; for GST inhibition: 25 µM.
T2 sequence (P09211 2-210 limits assumed): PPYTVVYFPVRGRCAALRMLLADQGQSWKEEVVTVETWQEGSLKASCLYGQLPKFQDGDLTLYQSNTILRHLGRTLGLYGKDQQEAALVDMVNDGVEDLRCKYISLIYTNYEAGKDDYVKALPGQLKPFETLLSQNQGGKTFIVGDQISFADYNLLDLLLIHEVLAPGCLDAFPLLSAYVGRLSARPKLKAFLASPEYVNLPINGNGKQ
The subject of series [3] is SK-MEL-28 melanoma cells. Nature of the series: MTT cell cytotoxicity assay. Format: cell-based, human. The following applies: for IC50: Homo sapiens, SK-MEL-28, 48 h, read-out: IC50 (48 h).
Series [4] concerns tyrosinase. Nature of the series: Metabolism by tyrosinase. The format is biochemical, Mushroom.
Series [5] deals with SK-MEL-28 melanoma cells. Nature of the series: Effect of modulators on CAPE toxicity. Format: cell-based, human. The following applies: for MTT assay value, No modulator / MTT assay value, Ethacrynic acid (2 µM) / MTT assay value, MK-571 (10 µM) / MTT assay value, Probenecid (500 µM): 48 h; for MTT assay value, Ethacrynic acid (2 µM): 1 h pretreatment with EA; for MTT assay value, MK-571 (10 µM): 1 h pretreatment with MK-571; for MTT assay value, Probenecid (500 µM): 1 h pretreatment with probenecid; for MTT assay value, modulator alone, Cells (1% DMSO) / MTT assay value, modulator alone, Cells: no CAPE, MK-571 10 µM, probenecid 500 µM, ethacrynic acid 2 µM; for decrease of the IC50 value of CAPE (30 µM): MK-571 10 µM or probenecid 500 µM with CAPE 30 µM. (Tetrazolium assays rely on reduction of a dye to a coloured formazan, in cell work by metabolically active cells.)

The target of series [6] is T2, human placenta GST (hGSTP1-1). Nature of the series: Reversible/irreversible nature of GST inhibition. Format: biochemical. The following applies: GST activity after filtering the reaction mixture through 10 K Millipore filter; 25 µM.
Series [7] deals with T1, GST (human placenta, hGSTP1-1). Nature of the series: Competitive and non-competitive GST inhibition, Lineweaver-Burk plots, Ki. Format: biochemical. Conditions: for Mechanism of GST inhibition, with respect to GSH (0.2–1 mM): Inhibition / Mechanism of GST inhibition, with respect to CDNB (0.2–1 mM): Inhibition: CAPE 100 µM, CAPE-quinone 10 µM, CAPE-SG 10 µM, EA 20 µM; for Ki′ with respect to GSH (0.2–1 mM) / Ki′ with respect to CDNB (0.2–1 mM): mixed inhibition; for Ki: apparent Ki.

For series [8] the following is noted: cited from earlier work.
Series [9] concerns SK-MEL-28 cells. Nature of the series: Annexin V-FITC/propidium iodide apoptosis assay. The format is cell-based, human. The following applies: for increase of CAPE (15 µM) induced apoptotic cell death / increase of CAPE (30 µM) induced apoptotic cell death: MK-571 10 µM or probenecid 500 µM, 1 h pretreatment, 48 h.
Series [10] relates to SK-MEL-28 melanoma cells. Nature of the series: Mitochondrial membrane potential assay. Format: cell-based, human. The following applies: for increase of the effect of CAPE (15–30 µM) on mitochondrial membrane potential: MK-571 10 µM or probenecid 500 µM, approximate; for further decrease of mitochondrial membrane potential for CAPE (15 µM) / further decrease of mitochondrial membrane potential for CAPE (30 µM): combination with MK-571 10 µM or probenecid 500 µM, 48 h.

For series [11], the system named is GST in human SK-MEL-28 melanoma cell homogenate. Nature of the series: Inhibition of GST in human SK-MEL-28 melanoma cell homogenate. The format is biochemical. The following applies: 15–100 µM, in the presence of tyrosinase (10 U/mL).
[12] abbreviates: 30 µM, 48 h incubation (data not shown).
Where [13] appears, read: read-out: Ki with respect to CDNB (0.2–1 mM), GSH 1 mM.
Where [14] appears, read: read-out: Ki with respect to GSH (0.2–1 mM), CDNB 1 mM.

The values below come from publication PMC3706206 (Chemico-biological interactions, 2011).

Read-outs that look alike come from different tables or passages of the source.

T1 sequence (P09211 2-210 limits assumed): as above

Consider `COc1ccc(O)cc1` [4-HA, 4-hydroxyanisole], for which, in series [1], the “substrate for GST (GSH consumption as biomarker)” value (shortened to “substrate for GST”) is “none of these tested compounds, including CAPE, 4-HA, tyrosine, and CA, was a substrate for GST”. Also, the “GST inhibition in the absence and presence of tyrosinase” value in [2] was “no GST inhibition”. Besides, the cell toxicity in series [3] (setting [12]) is on record as 2–27%. The IC50 in series [3] is 60 µM. For the same compound, in series [4], the substrate for tyrosinase result is “substrates for tyrosinase”.
In the case of `COC1=CC(=O)C(=O)C=C1` [4-HA-quinone], the GST activity inhibition result in [2] (50 µM) is listed as “no significant GST inhibition”.
For the compound `CCCCS(=N)(=O)CCC(N)C(=O)O` (centres unmarked) [BSO], the “effect on CAPE induced toxicity in SK-MEL-28 cells” value in [5] (data not shown) is reported as “enhanced”.
`O=C(O)/C=C/c1ccc(O)c(O)c1` [CA, caffeic acid]: the “substrate for GST” value in series [1] was “none of these tested compounds, including CAPE, 4-HA, tyrosine, and CA, was a substrate for GST”. Besides, the “reversible or irreversible nature of GST inhibition” value in series [6] was “weak and reversible inhibitors of GST”. Also, the cell toxicity in series [3] (setting [12]) is reported as 2–27%. In addition, the IC50 in series [3] amounted to 2300 µM. Moreover, in series [4], the substrate for tyrosinase result is “substrates for tyrosinase”.
For the compound `O=C(O)/C=C/C1=CC(=O)C(=O)C=C1` [CA-quinone], the “reversible or irreversible nature of GST inhibition” value in series [6] was “irreversibly”.
Regarding `O=C(/C=C/c1ccc(O)c(O)c1)OCCc1ccccc1` [CAPE, caffeic acid phenethyl ester], in [1], the “substrate for GST” value was “none of these tested compounds, including CAPE, 4-HA, tyrosine, and CA, was a substrate for GST”. The inhibition at 50 µM in series [2] (read-out: GST activity inhibition) is 13%. The “reversible or irreversible nature of GST inhibition” value in series [6] is “weak and reversible inhibitors of GST”. Further, in series [7] (CDNB 1 mM), the “Mechanism of GST inhibition, with respect to GSH (0.2–1 mM): Inhibition” value (“Mechanism … to GSH (0.2–1 mM): Inhibition” for short) is given as “Mixed” and the “Ki′ with respect to GSH (0.2–1 mM)” value is listed as 2990 µM. In addition, in [7] (GSH 1 mM), the “Mechanism of GST inhibition, with respect to CDNB (0.2–1 mM): Inhibition” value (from here on “Mechanism … to CDNB (0.2–1 mM): Inhibition”) is reported as “Mixed” and the “Ki′ with respect to CDNB (0.2–1 mM)” value amounted to 451 µM. Moreover, the Ki in series [7] (Ki with respect to CDNB (0.2–1 mM), GSH 1 mM) was found to be 233 µM. The Ki in series [7] (Ki with respect to GSH (0.2–1 mM), CDNB 1 mM) was determined as 942 µM. In series [3] (15 µM, 48 h incubation), the cell toxicity is recorded as 48%. Further, the IC50 in series [3] was 15 µM. For the same compound, in series [5] (CAPE 15 µM), the “MTT assay value, No modulator” value stood at 52 ± 2; the “MTT assay value, Ethacrynic acid (2 µM)” value stood at 51 ± 2; the “MTT assay value, MK-571 (10 µM)” value is listed as 39 ± 3; the “MTT assay value, Probenecid (500 µM)” value was 31 ± 2. Further, in [5] (CAPE 30 µM), the “MTT assay value, No modulator” value is 38 ± 2; the “MTT assay value, Ethacrynic acid (2 µM)” value is listed as 39 ±4; the “MTT assay value, MK-571 (10 µM)” value is 26 ± 1; the “MTT assay value, Probenecid (500 µM)” value was determined as 29 ± 1. Also, the substrate for tyrosinase result in series [4] was “substrates for tyrosinase”. Further, the “CAPE metabolized by tyrosinase” value in [4] (after a 60-min incubation) is on record as 90%. Also, the “stability in human plasma” value in [8] is given as “highly stable”.
Regarding `O=C(/C=C/C1=CC(=O)C(=O)C=C1)OCCc1ccccc1` [CAPE-quinone], the GST activity inhibition in series [2] (10 µM) is given as 70%; in [2] (50 µM) it was 93%. In [2], this compound displayed a GST inhibition of no less than 85%. In series [6], the “reversible or irreversible nature of GST inhibition” value is listed as “irreversible covalent binding”. Besides, the “Mechanism … to GSH (0.2–1 mM): Inhibition” value in [7] (CDNB 1 mM) was “Competitive”. Also, the “Mechanism … to CDNB (0.2–1 mM): Inhibition” value in series [7] (GSH 1 mM) is recorded as “Mixed”. In addition, the “Ki′ with respect to CDNB (0.2–1 mM)” value in series [7] (GSH 1 mM) came to 8.8 µM. Besides, the Ki in series [7] (setting [13]) was 2.7 µM; in series [7] (setting [14]), 0.7 µM.
As to `O=[N+]([O-])c1ccc(Cl)c([N+](=O)[O-])c1` [CDNB, 1-chloro-2,4-dinitrobenzene], in series [1] (CDNB metabolized by GST, 60 min incubation, positive control), the “glutathione consumed per mole of CDNB” value is 0.6 mol.
Turning to `C=C(CC)C(=O)c1ccc(OCC(=O)O)c(Cl)c1Cl` [Ethacrynic acid, ethacrynic acid], the “effect on the IC50 value of CAPE towards melanoma cells” value in series [5] (EA 2 µM) is “did not affect”. In [5], the “MTT assay value, modulator alone, Cells (1% DMSO)” value (shortened to “MTT assay value … (1% DMSO)”) is recorded as 96 ± 3 and the “MTT assay value, modulator alone, Cells” value stood at 97 ± 4.
Consider `CN(C)C(=O)CCSC(SCCC(=O)O)c1cccc(/C=C/c2ccc3ccc(Cl)cc3n2)c1` (centres unmarked) [MK-571], for which, in series [5], the “decrease of the IC50 value of CAPE (30 µM)” value is recorded as 12%; the “MTT assay value … (1% DMSO)” value stood at 97 ± 1; the “MTT assay value, modulator alone, Cells” value is 98 ± 3. Also, in [9], the “increase of CAPE (15 µM) induced apoptotic cell death” value is given as 3% and the “increase of CAPE (30 µM) induced apoptotic cell death” value is 7%. In [10], the “increase of the effect of CAPE (15–30 µM) on mitochondrial membrane potential” value is on record as 3–4 fold, the “further decrease of mitochondrial membrane potential for CAPE (15 µM)” value is listed as 10% and the “further decrease of mitochondrial membrane potential for CAPE (30 µM)” value was 29%.
With `CCCN(CCC)S(=O)(=O)c1ccc(C(=O)O)cc1` [probenecid], in series [5], the “decrease of the IC50 value of CAPE (30 µM)” value was determined as 9%; the “MTT assay value … (1% DMSO)” value amounted to 99 ± 6; the “MTT assay value, modulator alone, Cells” value came to 97 ± 5. Moreover, in series [9], the “increase of CAPE (15 µM) induced apoptotic cell death” value came out at 13% and the “increase of CAPE (30 µM) induced apoptotic cell death” value is given as 16%. Moreover, in series [9] (probenecid 500 µM, CAPE at 15 or 30 µM), the “change of CAPE-induced apoptotic cell death” value is “approximately doubled”. In addition, in series [10], the “increase of the effect of CAPE (15–30 µM) on mitochondrial membrane potential” value is listed as 8–11 fold, the “further decrease of mitochondrial membrane potential for CAPE (15 µM)” value amounted to 56% and the “further decrease of mitochondrial membrane potential for CAPE (30 µM)” value was determined as 68%.
Consider `N[C@@H](Cc1ccc(O)cc1)C(=O)O` [tyrosine, L-tyrosine], for which, in series [1], the “substrate for GST” value was “none of these tested compounds, including CAPE, 4-HA, tyrosine, and CA, was a substrate for GST”. The “GST inhibition in the absence and presence of tyrosinase” value in [2] is listed as “no GST inhibition”. Moreover, the “GST inhibition in SK-MEL-28 melanoma cell homogenate” value in series [11] is “did not show any significant GST inhibition”. In series [3] (setting [12]), the cell toxicity is on record as 2–27%. Further, in series [3], the half-inhibitory concentration (IC50) is greater than 5000 µM. For the same compound, the substrate for tyrosinase entry in [4] is on record as “substrates for tyrosinase”.
For the compound `N[C@@H](CC1=CC(=O)C(=O)C=C1)C(=O)O` [tyrosine–quinone], in series [2] (50 µM), the GST activity inhibition result is “no significant GST inhibition”.
“caffeic acid glutathione conjugate [CA-SG conjugate]”: in series [6], the “reversible or irreversible nature of GST inhibition” value was “reversibly”.
“caffeic acid phenethyl ester glutathione conjugate [CAPE-SG conjugate]” gave a GST inhibition in [2] of no less than 85%. Moreover, the “reversible or irreversible nature of GST inhibition” value in [6] is reported as “reversible”. Moreover, in series [7] (CDNB 1 mM), the “Mechanism … to GSH (0.2–1 mM): Inhibition” value is “Mixed” and the “Ki′ with respect to GSH (0.2–1 mM)” value amounted to 14 µM. For the same compound, the “Mechanism … to CDNB (0.2–1 mM): Inhibition” value in [7] (GSH 1 mM) is recorded as “Competitive”. The Ki in [7] (setting [13]) was found to be 3.1 µM. The Ki in [7] (setting [14]) was determined as 2.6 µM.

The IC50 is the concentration at which inhibition is half-maximal. For orientation: inhibition means the share of the control response that was lost under treatment.
